From PubChem BioAssay (NCI)
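In this assay, cells in 96-well plates receive the compound at five concentrations for 48 hours. Endpoints are linearly interpolated between the surrounding concentrations. Definition used: TGI = concentration required for complete inhibition of growth.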

What follows are compounds tested on MDA-N (assay: NCI anticancer screen, dose series, 48 h).

First: COc1ccc(C2OC(c3ccncc3)=NN2C)cc1OC (configuration not stated)
Second: COc1cc(OC)c(C2c3cc4c(cc3OC(N3CCCC3)C2C)OCO4)c(OC)c1 (configuration not stated)
The TGI of the first is higher: over 100 µM for the first, 35.4 µM for the second.

`COc1ccc(N2C(=O)CSC2c2c[nH]c3ccccc23)cc1` (configuration not stated) and `O=C1C(=Cc2ccccc2O)N=C(c2ccccc2)N1n1c(-c2ccccc2)nc2ccccc2c1=O` cannot be ordered by TGI: over 100 µM for the first, over 100 µM for the second.

`CCCCN=C(c1ccccc1)N1CCOCC1` and `Cc1ccc(O)c(-c2cscn2)c1` cannot be ordered by TGI: over 100 µM for the first, over 100 µM for the second.

`CSc1ncnc2c1ncn2CCC#N` and `CCC(=O)ONC(=O)Cn1ccc([N+](=O)[O-])n1` cannot be ordered by TGI: over 100 µM for the first, over 100 µM for the second.

`CC(C)CC(O)P(=O)(O)O` (configuration not stated) and `CC1CCCC(CC(=O)O)(CC(=O)O)C1` (configuration not stated) cannot be ordered by TGI: over 100 µM for the first, over 100 µM for the second.

Compared with `CC(C)(Cl)C(Br)CCC(=CCCl)CBr` (mixture of isomers), `C=C(Cl)C(C)(Cl)CCC(Br)C(C)(C)Cl` (configuration not stated) is 10-fold higher in TGI: 3.28 µM for the first, 33 µM for the second.

`Nc1[nH]nc2nc3ccc(C(F)(F)F)cc3nc12` and `CCNC(=O)Nc1cccc(NC(=O)NCC)n1` cannot be ordered by TGI: over 100 µM for the first, over 100 µM for the second.

`C=C1CN2CC(=C)CN(C1)CS(=O)(=O)N1CC(=C)CN(CC(=C)C1)S(=O)(=O)N1CC(=C)CN(CC(=C)C1)S(=O)(=O)C2` and `COC(=O)C1CCCN1C(=O)C(Cc1cn(S(=O)(=O)c2ccc(C)cc2)cn1)NC(=O)OC(C)(C)C` (configuration not stated) cannot be ordered by TGI: over 100 µM for the first, over 100 µM for the second.

For `Nc1ccc(S2(c3ccc(N)cc3)C=C(c3ccccc3)C(c3ccccc3)=C2)cc1`, the TGI was over 100 µM.

Each compound was assayed on BT-549 breast (assay: NCI anticancer screen, dose series, 48 h).

Going from `COc1ccc(N2C(=O)CSC2c2c[nH]c3ccccc23)cc1` (configuration not stated) to `O=C1C(=Cc2ccccc2O)N=C(c2ccccc2)N1n1c(-c2ccccc2)nc2ccccc2c1=O`, the TGI falls from over 100 µM to 89.9 µM.

Going from `COC1C=COC2(C)Oc3c(C)c(O)c4c(O)c(c(C5SCCS5)c(O)c4c3C2=O)NC(=O)C(C)=C/C=C\C(C)C2OC(C)(C)OC(C2C)C(C)C(OC(C)=O)C1C` (configuration not stated) to `COC(=O)C1=C(C)NC(C)=C(C(=O)OC)C1c1nc2sccn2c1[N+](=O)[O-]`, the TGI rises from 9.26 µM to over 100 µM.

`CCCCN=C(c1ccccc1)N1CCOCC1` and `Cc1ccc(O)c(-c2cscn2)c1` cannot be ordered by TGI: over 100 µM for the first, over 100 µM for the second.

`CC1CCCC(CC(=O)O)(CC(=O)O)C1` (configuration not stated) and `COC(=O)C1CCCN1C(=O)C(Cc1cn(S(=O)(=O)c2ccc(C)cc2)cn1)NC(=O)OC(C)(C)C` (configuration not stated) cannot be ordered by TGI: over 100 µM for the first, over 100 µM for the second.

Compared with `CC(C)(Cl)C(Br)CCC(=CCCl)CBr` (mixture of isomers), `C=C(Cl)C(C)(Cl)CCC(Br)C(C)(C)Cl` (configuration not stated) is 7.6-fold higher in TGI: 6.24 µM for the first, 47.2 µM for the second.

`Nc1[nH]nc2nc3ccc(C(F)(F)F)cc3nc12` and `CCNC(=O)Nc1cccc(NC(=O)NCC)n1` cannot be ordered by TGI: over 100 µM for the first, over 100 µM for the second.

Compound `C=C1CN2CC(=C)CN(C1)CS(=O)(=O)N1CC(=C)CN(CC(=C)C1)S(=O)(=O)N1CC(=C)CN(CC(=C)C1)S(=O)(=O)C2` has a TGI of over 100 µM.

These compounds were tested on IGROV1 ovarian (assay: NCI anticancer screen, dose series, 48 h).

`COc1ccc(C2OC(c3ccncc3)=NN2C)cc1OC` (configuration not stated) and `COc1cc2c3c(c1OC)C1(C=CC(=O)C=C1)C[C@H]3N(C)CC2` cannot be ordered by TGI: over 100 µM for the first, over 100 µM for the second.

Compared with `COc1c(C(C)C)cc2c3c1OC(=O)[C@@]31CCCC(C)(C)C1CC2` (some centres not stated), `COc1cc(OC)c(C2c3cc4c(cc3OC(N3CCCC3)C2C)OCO4)c(OC)c1` (configuration not stated) is lower in TGI: over 100 µM for the first, 52.8 µM for the second.

`COc1ccc(N2C(=O)CSC2c2c[nH]c3ccccc23)cc1` (configuration not stated) and `COc1ccc(C2COc3cc(O)c(O)cc3C2)cc1` (configuration not stated) cannot be ordered by TGI: over 100 µM for the first, 148 µM for the second.

Going from `COC1C=COC2(C)Oc3c(C)c(O)c4c(O)c(c(C5SCCS5)c(O)c4c3C2=O)NC(=O)C(C)=C/C=C\C(C)C2OC(C)(C)OC(C2C)C(C)C(OC(C)=O)C1C` (configuration not stated) to `COC(=O)C1CCCN1C(=O)C(Cc1cn(S(=O)(=O)c2ccc(C)cc2)cn1)NC(=O)OC(C)(C)C` (configuration not stated), the TGI rises from 30.7 µM to over 100 µM.

`OCc1ccc(C2CC(c3ccco3)=NN2c2ccccc2)o1` (configuration not stated) and `O=C(CN(c1ccccc1)c1ccccc1)n1nnc2ccccc21` cannot be ordered by TGI: over 100 µM for the first, over 100 µM for the second.

`CCCCN=C(c1ccccc1)N1CCOCC1` and `CSc1sc2ccccc2[s+]1` cannot be ordered by TGI: over 100 µM for the first, over 100 µM for the second.

`CSc1ncnc2c1ncn2CCC#N` and `Cc1ccc(S(=O)(=O)C(C#N)c2nc3ccccc3nc2-n2ccnc2)cc1` (configuration not stated) cannot be ordered by TGI: over 100 µM for the first, over 100 µM for the second.

`CCOC(=O)c1ccc(C)c(N=NN(C)C)c1` and `CCNC(=O)Nc1cccc(NC(=O)NCC)n1` cannot be ordered by TGI: over 100 µM for the first, over 100 µM for the second.

`CC1CCCC(CC(=O)O)(CC(=O)O)C1` (configuration not stated) and `O=NN(CCCl)C(=O)NC1CCC(O)CC1` (configuration not stated) cannot be ordered by TGI: over 100 µM for the first, over 100 µM for the second.

First: CC(C)(Cl)C(Br)CCC(=CCCl)CBr (mixture of isomers)
Second: C=C(Cl)C(C)(Cl)CCC(Br)C(C)(C)Cl (configuration not stated)
The TGI of the first is 14-fold lower: 6.73 µM for the first, 90.9 µM for the second.

First: Nc1[nH]nc2nc3ccc(C(F)(F)F)cc3nc12
Second: Cc1ccc(O)c(-c2cscn2)c1
The TGI of the first is lower: 72.2 µM for the first, over 100 µM for the second.

`CCC(=O)ONC(=O)Cn1ccc([N+](=O)[O-])n1` and `O=C1C(=Cc2ccccc2O)N=C(c2ccccc2)N1n1c(-c2ccccc2)nc2ccccc2c1=O` cannot be ordered by TGI: over 100 µM for the first, over 100 µM for the second.

`C=C1CN2CC(=C)CN(C1)CS(=O)(=O)N1CC(=C)CN(CC(=C)C1)S(=O)(=O)N1CC(=C)CN(CC(=C)C1)S(=O)(=O)C2` and `O=c1c(C(c2ccc(Cl)cc2)c2c(O)c3ccccc3n(-c3ccccc3)c2=O)c(O)c2ccccc2n1-c1ccccc1` cannot be ordered by TGI: over 100 µM for the first, over 100 µM for the second.

Work on `Nc1ccc(S2(c3ccc(N)cc3)C=C(c3ccccc3)C(c3ccccc3)=C2)cc1` yielded a TGI of over 100 µM.
